Literature values in US9579280B2, “Controlled release delivery system for nasal applications and method of treatment” (MATTERN PHARMA AG, priority 2003, dated 2017).
Like-named read-outs stand apart in the source and are kept apart here.

Legend:
[1] = molecular target: T1, sex hormone binding globulin (SHBG) (Homo sapiens, UniProt P04278)
T1 sequence (P04278 30-402): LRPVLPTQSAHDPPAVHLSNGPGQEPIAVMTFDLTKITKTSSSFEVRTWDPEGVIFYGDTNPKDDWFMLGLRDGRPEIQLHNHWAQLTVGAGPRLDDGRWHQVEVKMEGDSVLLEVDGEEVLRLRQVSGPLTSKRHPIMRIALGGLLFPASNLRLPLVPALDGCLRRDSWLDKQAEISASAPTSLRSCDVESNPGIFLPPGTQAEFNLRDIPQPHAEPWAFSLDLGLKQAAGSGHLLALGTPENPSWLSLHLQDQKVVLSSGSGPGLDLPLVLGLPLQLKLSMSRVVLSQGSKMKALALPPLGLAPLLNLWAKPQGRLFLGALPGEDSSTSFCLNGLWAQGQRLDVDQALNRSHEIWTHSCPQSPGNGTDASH

[2] = relative to water
[3] = nasal
female sexual response = conditions: for sexual arousal: sublingual or single vaginal dose

## C[C@]12CC[C@H]3[C@@H](CCC4=CC(=O)CC[C@@]43C)[C@@H]1CC[C@@H]2O [Testosterone, testosterone]
[1]
  fraction of circulating plasma testosterone bound to SHBG: Approximately 40%
[1]; in men
  unbound (free) fraction: 2%
[1]; in women
  unbound (free) fraction: up to 3%
[2]
  solubility in vegetable oil: somewhat more soluble in vegetable oil

## CN(C)CC(=O)O[C@H]1CC[C@H]2[C@@H]3CCC4=CC(=O)CC[C@]4(C)[C@H]3CC[C@]12C [testosterone 17β-N,N-dimethylglycinate]
[3]
  elimination half-life: about fifty-five
  serum levels compared with intravenous administration: equal to intravenous administration
[3]; 25 mg dose
  time to peak plasma concentration: twelve
[3]; 50 mg dose
  time to peak plasma concentration: twenty

## CCC(=O)O[C@H]1CC[C@H]2[C@@H]3CCC4=CC(=O)CC[C@]4(C)[C@H]3CC[C@]12C [testosterone propionate]
Female sexual response; single vaginal dose
  time of testosterone and free testosterone peak: 5.5 h
Female sexual response
  sexual arousal: does not trigger sexual arousal

## CCCCCCCCCCC(=O)O[C@H]1CC[C@H]2[C@@H]3CCC4=CC(=O)CC[C@]4(C)[C@H]3CC[C@]12C [testosterone undecanoate]
Female sexual response
  sexual arousal: triggers sexual arousal
